# Patent publication US8962596B2 (Array BioPharma Inc., priority 2010, dated 2015)
# Tests used:
# Format in all cases: biochemical
# JAK3 = target: T1, JAK3 (Homo sapiens, UniProt P52333); test: JAK3 Inhibition Assay (Omnia kinase fluorescence peptide substrate assay); settings: averaged IC50 ranges; assay of Example D; 10 μM (Km app) or 1 mM ATP, 2.5 nM JAK3
# T1 construct: purchased Invitrogen Corporation, Carlsbad, Calif; PV4080
# T1 sequence (P52333 1-1124): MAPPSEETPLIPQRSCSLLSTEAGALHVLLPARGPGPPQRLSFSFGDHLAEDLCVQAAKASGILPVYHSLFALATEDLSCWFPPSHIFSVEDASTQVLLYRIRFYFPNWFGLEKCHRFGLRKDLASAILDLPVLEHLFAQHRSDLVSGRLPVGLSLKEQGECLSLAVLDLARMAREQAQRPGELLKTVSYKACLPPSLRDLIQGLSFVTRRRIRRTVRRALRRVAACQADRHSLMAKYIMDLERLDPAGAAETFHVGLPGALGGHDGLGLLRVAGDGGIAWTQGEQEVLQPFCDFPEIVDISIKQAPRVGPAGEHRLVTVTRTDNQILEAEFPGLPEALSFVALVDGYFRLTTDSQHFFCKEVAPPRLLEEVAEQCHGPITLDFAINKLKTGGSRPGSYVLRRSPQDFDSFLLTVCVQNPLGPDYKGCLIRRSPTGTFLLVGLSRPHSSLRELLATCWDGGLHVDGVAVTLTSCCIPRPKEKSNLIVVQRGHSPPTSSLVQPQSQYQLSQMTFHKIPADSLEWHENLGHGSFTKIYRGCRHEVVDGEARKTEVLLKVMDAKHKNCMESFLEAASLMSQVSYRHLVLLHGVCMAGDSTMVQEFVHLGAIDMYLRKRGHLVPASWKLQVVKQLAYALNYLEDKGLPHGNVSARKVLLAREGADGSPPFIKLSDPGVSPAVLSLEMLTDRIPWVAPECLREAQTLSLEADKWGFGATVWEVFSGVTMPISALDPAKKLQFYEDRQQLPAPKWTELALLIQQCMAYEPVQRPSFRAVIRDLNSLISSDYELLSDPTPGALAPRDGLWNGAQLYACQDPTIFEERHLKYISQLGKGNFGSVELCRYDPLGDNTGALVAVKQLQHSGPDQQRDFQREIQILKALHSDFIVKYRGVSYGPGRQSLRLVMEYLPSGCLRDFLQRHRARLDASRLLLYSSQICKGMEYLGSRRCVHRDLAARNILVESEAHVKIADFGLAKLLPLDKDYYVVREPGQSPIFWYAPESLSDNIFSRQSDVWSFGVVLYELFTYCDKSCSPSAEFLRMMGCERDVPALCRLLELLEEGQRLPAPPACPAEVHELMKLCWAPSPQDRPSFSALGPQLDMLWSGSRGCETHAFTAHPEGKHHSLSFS
# Outline: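 Kinase at 2.5 nM with 10 µM Omnia Y7 peptide and 10 µM (Km app) or 1 mM ATP in 25 mM HEPES pH 7.4, 10 mM MgCl2, 1 mM DTT, 0.01% Triton X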
# JAK1 = target: T2, JAK1 (Homo sapiens, UniProt P23458); test: JAK1 Inhibition Assay (Omnia kinase fluorescence peptide substrate assay); settings: averaged IC50 ranges; assay of Example B; 40 μM (Km app) or 1 mM ATP, 15 nM JAK1
# T2 construct: purchased Invitrogen Corporation, Carlsbad, Calif; PV4775
# Human Tyk2 kinase domain = target: T3, Human Tyk2 kinase domain (Homo sapiens, UniProt P29597); test: Tyk2 Inhibition Assay (Omnia kinase fluorescence peptide substrate assay); settings: averaged IC50 ranges; assay of Example A; 10 μM (Km app) or 1 mM ATP, 2 nM Tyk2
# T3 construct: comprising amino acids 886 to 1187 with 10 additional histidine residues; 10xHis (histidine tag) (C, cleaved yes); made in house
# T3 sequence (P29597 886-1187): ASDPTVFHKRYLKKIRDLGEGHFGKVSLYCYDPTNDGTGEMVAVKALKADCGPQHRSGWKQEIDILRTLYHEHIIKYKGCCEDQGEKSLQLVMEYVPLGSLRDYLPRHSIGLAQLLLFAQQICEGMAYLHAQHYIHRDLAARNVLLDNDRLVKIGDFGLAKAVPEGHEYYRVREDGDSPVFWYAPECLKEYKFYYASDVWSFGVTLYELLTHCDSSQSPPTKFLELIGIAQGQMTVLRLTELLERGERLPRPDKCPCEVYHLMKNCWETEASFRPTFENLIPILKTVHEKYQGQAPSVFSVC
# Outline: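 2 nM His-tag-cleaved kinase domain (aa 886–1187) with 8 μM Omnia Y12 peptide, 10 μM (Km app) or 1 mM ATP, pH 7.4 HEPES/10 mM MgCl2, 2% DMSO. Fluorescence (ex 360/em 485 nm) every 50 s for 45 min; IC50 from 4-parameter fit of POC, top dose 10 μM.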
# JAK2 = target: T4, JAK2 (Homo sapiens, UniProt O60674); test: JAK2 Inhibition Assay (Omnia kinase fluorescence peptide substrate assay); settings: averaged IC50 ranges; assay of Example C; 25 μM (Km app) or 1 mM ATP, 5 nM JAK2
# T4 construct: purchased Invitrogen Corporation, Carlsbad, Calif; PV4288
# Outline: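 5 nM JAK2 phosphorylated 10 μM Omnia Y7 peptide with ATP at 25 μM (Km app) or 1 mM, in 25 mM HEPES pH 7.4, 10 mM MgCl2, 0.01% Triton X-100, 1 mM DTT, 2% DMSO. Fluorescence (360/485 nm) was read every 50 s for 45 min. 10-point 3-fold series from 10 μM; POC versus uninhibited and background controls, 4-parameter logistic IC50.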
# T4 sequence (O60674 whole entry): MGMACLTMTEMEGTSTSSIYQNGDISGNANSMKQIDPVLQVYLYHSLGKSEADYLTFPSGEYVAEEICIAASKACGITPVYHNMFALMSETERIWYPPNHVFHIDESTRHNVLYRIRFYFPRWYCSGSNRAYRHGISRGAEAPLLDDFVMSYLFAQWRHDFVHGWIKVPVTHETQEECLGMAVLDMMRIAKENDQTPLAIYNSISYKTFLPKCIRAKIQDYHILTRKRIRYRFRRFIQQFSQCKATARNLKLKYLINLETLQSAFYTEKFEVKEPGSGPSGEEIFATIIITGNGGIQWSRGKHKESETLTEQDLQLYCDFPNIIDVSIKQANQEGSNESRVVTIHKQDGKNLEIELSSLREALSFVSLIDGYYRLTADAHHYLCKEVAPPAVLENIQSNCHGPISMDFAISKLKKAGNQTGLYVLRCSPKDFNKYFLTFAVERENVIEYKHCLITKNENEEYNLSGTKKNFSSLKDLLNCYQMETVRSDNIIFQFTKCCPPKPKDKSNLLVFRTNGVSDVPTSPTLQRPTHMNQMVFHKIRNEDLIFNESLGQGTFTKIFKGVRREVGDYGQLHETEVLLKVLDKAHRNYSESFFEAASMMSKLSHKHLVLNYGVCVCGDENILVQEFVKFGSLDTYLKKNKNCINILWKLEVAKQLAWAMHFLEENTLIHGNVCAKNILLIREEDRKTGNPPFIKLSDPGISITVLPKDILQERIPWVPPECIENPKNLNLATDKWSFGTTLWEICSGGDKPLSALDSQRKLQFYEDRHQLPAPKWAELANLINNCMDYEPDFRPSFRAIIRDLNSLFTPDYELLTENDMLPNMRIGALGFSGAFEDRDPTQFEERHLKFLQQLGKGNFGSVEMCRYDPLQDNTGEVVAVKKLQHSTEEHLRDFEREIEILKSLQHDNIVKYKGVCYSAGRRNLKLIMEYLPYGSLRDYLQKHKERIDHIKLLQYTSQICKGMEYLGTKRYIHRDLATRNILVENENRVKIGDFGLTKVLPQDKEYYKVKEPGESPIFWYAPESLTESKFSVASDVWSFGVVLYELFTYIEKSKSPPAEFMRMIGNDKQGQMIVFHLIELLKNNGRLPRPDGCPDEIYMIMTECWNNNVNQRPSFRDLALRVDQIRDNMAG
# T2 sequence (P23458 whole entry): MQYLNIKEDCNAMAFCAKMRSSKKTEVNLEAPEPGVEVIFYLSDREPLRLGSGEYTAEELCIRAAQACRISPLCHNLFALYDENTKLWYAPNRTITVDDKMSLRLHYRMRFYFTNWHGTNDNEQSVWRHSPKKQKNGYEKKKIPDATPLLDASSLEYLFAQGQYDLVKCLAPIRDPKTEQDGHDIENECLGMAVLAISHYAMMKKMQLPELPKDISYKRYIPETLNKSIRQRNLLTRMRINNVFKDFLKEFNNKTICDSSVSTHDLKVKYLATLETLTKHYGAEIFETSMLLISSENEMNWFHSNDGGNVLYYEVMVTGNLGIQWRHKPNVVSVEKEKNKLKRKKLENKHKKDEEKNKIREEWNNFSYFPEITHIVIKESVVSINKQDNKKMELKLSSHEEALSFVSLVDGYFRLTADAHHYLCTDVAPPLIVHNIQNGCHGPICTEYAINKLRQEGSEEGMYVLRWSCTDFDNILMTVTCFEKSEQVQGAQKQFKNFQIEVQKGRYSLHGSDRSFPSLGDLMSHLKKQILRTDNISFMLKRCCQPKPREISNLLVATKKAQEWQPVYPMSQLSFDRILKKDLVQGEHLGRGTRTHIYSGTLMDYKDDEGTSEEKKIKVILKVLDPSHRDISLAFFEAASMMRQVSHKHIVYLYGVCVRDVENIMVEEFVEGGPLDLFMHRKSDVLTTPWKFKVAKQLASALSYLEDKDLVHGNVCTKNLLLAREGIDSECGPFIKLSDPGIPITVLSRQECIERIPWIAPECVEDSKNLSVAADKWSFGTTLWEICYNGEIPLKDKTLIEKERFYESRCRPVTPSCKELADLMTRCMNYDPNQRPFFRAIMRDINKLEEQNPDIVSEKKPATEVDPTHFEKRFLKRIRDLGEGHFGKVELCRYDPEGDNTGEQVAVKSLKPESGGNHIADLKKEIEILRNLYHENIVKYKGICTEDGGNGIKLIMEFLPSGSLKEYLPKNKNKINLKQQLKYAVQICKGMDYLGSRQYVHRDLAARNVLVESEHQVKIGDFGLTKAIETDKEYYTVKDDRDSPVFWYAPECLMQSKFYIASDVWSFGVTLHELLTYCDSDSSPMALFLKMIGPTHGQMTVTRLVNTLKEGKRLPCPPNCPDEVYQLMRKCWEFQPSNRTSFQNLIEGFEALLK
smiles,measurement,setting,value
"Cn1cc(-c2cc3nccn3c(-c3cnn(C4(CC#N)CN(C5CC5)C4)c3)n2)cn1 [Example 66, 2-(1-Cyclopropyl-3-(4-(7-(1-methyl-1H-pyrazol-4-yl)imidazo[1,2-c]pyrimidin-5-yl)-1H-pyrazol-1-yl)azetidin-3-yl)acetonitrile]",IC50,JAK3,> 1000 nM
same,IC50,JAK1,100 to 1000 nM
same,IC50,Human Tyk2 kinase domain,10 to 100 nM
same,IC50,JAK2,100 to 1000 nM
"Cn1cc(-c2cc3nccn3c(-c3cnn(C4(CC#N)CN(C5COC5)C4)c3)n2)cn1 [Example 67, 2-(3-(4-(7-(1-Methyl-1H-pyrazol-4-yl)imidazo[1,2-c]pyrimidin-5-yl)-1H-pyrazol-1-yl)-1-(oxetan-3-yl)azetidin-3-yl)acetonitrile]",IC50,JAK3,> 1000 nM
same,IC50,JAK1,> 1000 nM
same,IC50,Human Tyk2 kinase domain,10 to 100 nM
same,IC50,JAK2,100 to 1000 nM
"Cn1cc(-c2cc3nccn3c(-c3cnn(C4(CC#N)CN(c5ncccn5)C4)c3)n2)cn1 [Example 68, 2-(3-(4-(7-(1-Methyl-1H-pyrazol-4-yl)imidazo[1,2-c]pyrimidin-5-yl)-1H-pyrazol-1-yl)-1-(pyrimidin-2-yl)azetidin-3-yl)acetonitrile]",IC50,JAK3,> 1000 nM
same,IC50,JAK1,> 1000 nM
same,IC50,Human Tyk2 kinase domain,100 to 1000 nM
same,IC50,JAK2,> 1000 nM
"Cn1cc(-c2cc3nccn3c(-c3cnn(C4(CC#N)CN(CC(F)F)C4)c3)n2)cn1 [Example 69, 2-(1-(2,2-dDifluoroethyl)-3-(4-(7-(1-methyl-1H-pyrazol-4-yl)imidazo[1,2-c]pyrimidin-5-yl)-1H-pyrazol-1-yl)azetidin-3-yl)acetonitrile]",IC50,JAK3,> 1000 nM
same,IC50,JAK1,100 to 1000 nM
same,IC50,Human Tyk2 kinase domain,< 10 nM
same,IC50,JAK2,10 to 100 nM
"Cn1cc(-c2cc3nccn3c(-c3cnn(C4(CC#N)CN(CC(F)(F)C(F)(F)F)C4)c3)n2)cn1 [Example 70, 2-(3-(4-(7-(1-Methyl-1H-pyrazol-4-yl)imidazo[1,2-c]pyrimidin-5-yl)-1H-pyrazol-1-yl)-1-(2,2,3,3,3-pentafluoropropyl)azetidin-3-yl)acetonitrile]",IC50,JAK3,100 to 1000 nM
same,IC50,JAK1,10 to 100 nM
same,IC50,Human Tyk2 kinase domain,< 10 nM
same,IC50,JAK2,10 to 100 nM
"Cn1cc(-c2cc3nccn3c(-c3cnn(C4(CC#N)CN(CC(F)(F)F)C4)c3)n2)cn1 [Example 71, 2-(3-(4-(7-(1-methyl-1H-pyrazol-4-yl)imidazo[1,2-c]pyrimidin-5-yl)-1H-pyrazol-1-yl)-1-(2,2,2-trifluoroethyl)azetidin-3-yl)acetonitrile]",IC50,JAK3,> 1000 nM
same,IC50,JAK1,100 to 1000 nM
same,IC50,Human Tyk2 kinase domain,< 10 nM
same,IC50,JAK2,10 to 100 nM
"CCN1CC(CC#N)(n2cc(-c3nc(-c4cnn(C)c4)cc4nccn34)cn2)C1 [Example 72, 2-(1-ethyl-3-(4-(7-(1-methyl-1H-pyrazol-4-yl)imidazo[1,2-c]pyrimidin-5-yl)-1H-pyrazol-1-yl)azetidin-3-yl)acetonitrile]",IC50,JAK3,> 1000 nM
same,IC50,JAK1,> 1000 nM
same,IC50,Human Tyk2 kinase domain,10 to 100 nM
same,IC50,JAK2,100 to 1000 nM
"Cn1cc(-c2cc3nccn3c(-c3cnn(C4(CC#N)CN(CC#N)C4)c3)n2)cn1 [Example 73, 2,2′-(3-(4-(7-(1-methyl-1H-pyrazol-4-yl)imidazo[1,2-c]pyrimidin-5-yl)-1H-pyrazol-1-yl)azetidine-1,3-diyl)diacetonitrile]",IC50,JAK3,> 1000 nM
same,IC50,JAK1,100 to 1000 nM
same,IC50,Human Tyk2 kinase domain,< 10 nM
same,IC50,JAK2,10 to 100 nM
"Cn1cc(-c2cc3nccn3c(-c3cnn(C4(CC#N)CN(CCCF)C4)c3)n2)cn1 [Example 74, 2-(1-(3-fluoropropyl)-3-(4-(7-(1-methyl-1H-pyrazol-4-yl)imidazo[1,2-c]pyrimidin-5-yl)-1H-pyrazol-1-yl)azetidin-3-yl)acetonitrile]",IC50,JAK3,> 1000 nM
same,IC50,JAK1,100 to 1000 nM
same,IC50,Human Tyk2 kinase domain,< 10 nM
same,IC50,JAK2,100 to 1000 nM
"CC#CCN1CC(CC#N)(n2cc(-c3nc(-c4cnn(C)c4)cc4nccn34)cn2)C1 [Example 75, 2-(1-(but-2-ynyl)-3-(4-(7-(1-methyl-1H-pyrazol-4-yl)imidazo[1,2-c]pyrimidin-5-yl)-1H-pyrdzol-1-yl)azetidin-3-yl)acetonitrile]",IC50,JAK3,> 1000 nM
same,IC50,JAK1,> 1000 nM
same,IC50,Human Tyk2 kinase domain,100 to 1000 nM
same,IC50,JAK2,> 1000 nM
"C#CCN1CC(CC#N)(n2cc(-c3nc(-c4cnn(C)c4)cc4nccn34)cn2)C1 [Example 76, 2-(3-(4-(7-(1-methyl-1H-pyrazol-4-yl)imidazo[1,2-c]pyrimidin-5-yl)-1H-pyrazol-1-yl)-1-(prop-2-ynyl)azetidin-3-yl)acetonitrile]",IC50,JAK3,> 1000 nM
same,IC50,JAK1,100 to 1000 nM
same,IC50,Human Tyk2 kinase domain,10 to 100 nM
same,IC50,JAK2,100 to 1000 nM
"Cn1cc(-c2cc3nccn3c(-c3cnn(C4(CC#N)CN(CCF)C4)c3)n2)cn1 [Example 77, 2-(1-(2-fluoroethyl)-3-(4-(7-(1-methyl-1H-pyrazol-4-yl)imidazo[1,2-c]pyrimidin-5-yl)-1H-pyrazol-1-yl)azetidin-3-yl)acetonitrile]",IC50,JAK3,> 1000 nM
same,IC50,JAK1,100 to 1000 nM
same,IC50,Human Tyk2 kinase domain,< 10 nM
same,IC50,JAK2,10 to 100 nM
"Cn1cc(-c2cc3nccn3c(-c3cnn(C4(CC#N)CN(CCC#N)C4)c3)n2)cn1 [Example 78, 3-(3-(cyanomethyl)-3-(4-(7-(1-methyl-1H-pyrazol-4-yl)imidazo[1,2-c]pyrimidin-5-yl)-1H-pyrazol-1-yl)azetidin-1-yl)propanenitrile]",IC50,JAK3,> 1000 nM
same,IC50,JAK1,100 to 1000 nM
same,IC50,Human Tyk2 kinase domain,10 to 100 nM
same,IC50,JAK2,100 to 1000 nM
"Cn1cc(-c2cc3nccn3c(-c3cnn(C4(CC#N)CN(C(CF)CF)C4)c3)n2)cn1 [Example 79, 2-(1-(1,3-difluoropropan-2-yl)-3-(4-(7-(1-methyl-1H-pyrazol-4-yl)imidazo[1,2-c]pyrimidin-5-yl)-1H-pyrazol-1-yl)azetidin-3-yl)acetonitrile]",IC50,JAK3,> 1000 nM
same,IC50,JAK1,> 1000 nM
same,IC50,Human Tyk2 kinase domain,10 to 100 nM
same,IC50,JAK2,100 to 1000 nM
"Cn1cc(-c2cc3nccn3c(-c3cnn(C4(CC#N)CN(CC(F)(F)C(F)F)C4)c3)n2)cn1 [Example 80, 2-(3-(4-(7-(1-methyl-1H-pyrazol-4-yl)imidazo[1,2-c]pyrimidin-5-yl)-1H-pyrazol-1-yl)-1-(2,2,3,3-tetrafluoropropyl)azetidin-3-yl)acetonitrile]",IC50,JAK3,> 1000 nM
same,IC50,JAK1,100 to 1000 nM
same,IC50,Human Tyk2 kinase domain,< 10 nM
same,IC50,JAK2,10 to 100 nM
"CCCN1CC(CC#N)(n2cc(-c3nc(-c4cnn(C)c4)cc4nccn34)cn2)C1 [Example 81, 2-(3-(4-(7-(1-methyl-1H-pyrazol-4-yl)imidazo[1,2-c]pyrimidin-5-yl)-1H-pyrazol-1-yl)-1-propylazetidin-3-yl)acetonitrile]",IC50,JAK3,> 1000 nM
same,IC50,JAK1,100 to 1000 nM
same,IC50,Human Tyk2 kinase domain,10 to 100 nM
same,IC50,JAK2,100 to 1000 nM
